Where two headings read alike, the source gives them in different places.
Columns and labels:
[1] = cited from earlier work
[2] = system: Staphylococcus aureus (ATCC 6538); assay: Minimal concentration for total antimicrobial activity, AOAC method 955.15 (Phenol Coefficient Method); type: cell-based; conditions: agent incorporated into formulation F, contact time 10 minutes
Method: The minimum concentration at which a total antimicrobial activity could be observed is determined for selected phenolic compounds of natural origin and selected essential oils using the AOAC method 955.15 (“Phenol Coefficient Method”) with minor modifications. Different concentrations of essential oils and phenolic compounds of natural origin are incorporated into formulation F (see table hereinbelow) and inoculated with a 0.05% bacterial suspension of Staphylococcus aureus (ATCC 6538; concentration of about 8 logs). After a contact time of 10 minutes, 0.1 ml of the inoculated solution is transferred to a broth culture with neutralizing (Difco 268110) and incubated over a period of 72 hours at 37° C. The presence of turbidity in the broth culture is indicative of the survival of the microorganism

Compound | LD50 Oral-rat ([1]; ingredients of Formulation 1) | Minimal Concentration [2] | other results
C=O [Formaldehyde] |  |  | LD50 ([1]; rat, in vivo, po): of 100 mg/Kg; LD50 Oral-rat ([1]; rat, in vivo, po): 100 mg/kg; Toxicity ([1]; rat, in vivo): Toxic
COCC(C)O (centres unmarked) [Glycol Ether PM] | 5 210 mg/kg |  | 
Sodium Laureth Sulfate | >5000 mg/kg |  | 
CC(C)=CCCC(C)=CC=O [Citral] |  | >1% v/v % | 
CCCCCCCCCCCCCCCC[N+](C)(C)CC(=O)[O-] [Cetyl Betaine] | 1620 mg/kg |  | 
Cc1ccc(C(C)C)c(O)c1 [Thymol] |  | 0.07 v/v % | 
Cc1ccc(C(C)C)cc1O [Carvacrol] |  | 0.07 v/v % | 
C=CCc1ccc(O)c(OC)c1 [Eugenol] |  | 0.4 v/v % | 
OCCCO [1,3-Propanediol] | >15 000 mg/kg |  | 

— patent publication US20190274952A1, “TOPICAL USE OF AN ANTIMICROBIAL FORMULATION” (priority 2013, published 2019)
